Patent US8071786B2, “Indole compounds useful as serotonin selective agents” (Galenea Corp., priority 2005, dated 2011)
Marks after values point to notes of the source that are not given here.

Assays:
[1] = Appetite suppression in mice, acute assay (food consumption); type: in vivo; conditions: for Mean food consumption 60 min. after injection: g (±SEM) Compound / Mean food consumption 90 min. after injection: g (±SEM) Compound: mice deprived of food 18 hours
Method: Mice were deprived of food, but not water, for 18 hours. They were then injected i.p. with test compounds dissolved in 0.9% NaCl containing 1 mg per ml ascorbic acid for protection against oxidation. Each mouse was placed in an individual cage for 30 minutes and then presented with a small petri dish containing a gel made from gelatin, powdered milk and sucrose. The dish was weighed at zero time and at 15-minute intervals for the next hour in order to quantitate food consumption. Controls were injected with saline-ascorbic acid; ±fenfluramine was used as an active control. Control consumption generally ranged from 1.5 to 2.0 grams.

[2] = Appetite suppression in mice, chronic assay (body weight); type: in vivo
Method: Mice were injected i.p. at intervals of 2 or 3 days and weighed repeatedly (6 or 7 total injections). Controls were injected with saline. Weighing and injection were carried out between 11 AM and 1 PM.

[3] = tested on: itch-associated scratching induced by serotonin; test: Animal model for OCD: serotonin-induced scratching; type: in vivo, male Swiss-Webster mice; conditions: for Number of Scratches as Percentage of Control: inducer Serotonin
Method: The 5-HT action is at least partly mediated by 5-HT2 receptors in the skin, as shown by blocking with specific antagonists (Yamaguchi, T., Nagasawa, T., Satoh, M., Kuraishi, Y. “Itch-associated Response Induced by Intradermal Serotonin Through 5-HT2 Receptors in Mice” Neurosci. Res. 1999, 35, 77). The effect of test compounds on itch-associated scratching in the mice may indicate their action on 5-HT receptors, and a study was carried out as an animal model for OCD. The subjects were male Swiss-Webster mice, 4-6 weeks old, weighing 25-45 g. Mice were housed 5 per cage, given free access to standard mouse food and water except during experiments, and maintained in a temperature-controlled room (70° F.). Serotonin and all test drugs were made up with ascorbic acid to protect against oxidation. Two mice, one a control, the other experimental, were tested each time. Each mouse was separately placed into a plexiglas box.
Mice were injected subcutaneously between the shoulder blades with either 0.1 ml of serotonin, 0.4 mg per ml in 0.15 M saline plus ascorbic acid, 1 mg/ml, or compound 48-80 (the copolymer product of N-methyl-p-methoxyphenethylamine with formaldehyde), 1.0 mg/ml in saline plus ascorbic acid. Test compounds were injected i.p. 5 minutes before the inducer. The cumulative number of scratches with a hind leg was recorded at 5 minute intervals for 30 minutes. One saline injected control and one test animal were tested together in each assay.

human 5-HT2C-INI = molecular target: T1, human 5-HT2C-INI (Homo sapiens, UniProt P28335); test: Phosphoinositide hydrolysis functional assay; type: cell-based; conditions: for Functional Assay (EC50) 5-HT2C / EC50: activation of phosphoinositide hydrolysis, stably expressed receptor; for Emax: value in brackets, read-out: percent Vmax relative to serotonin at 100%, 5-HT2C (converted)
T1 construct: expressed in transfected cells
T1 sequence (P28335 33-458): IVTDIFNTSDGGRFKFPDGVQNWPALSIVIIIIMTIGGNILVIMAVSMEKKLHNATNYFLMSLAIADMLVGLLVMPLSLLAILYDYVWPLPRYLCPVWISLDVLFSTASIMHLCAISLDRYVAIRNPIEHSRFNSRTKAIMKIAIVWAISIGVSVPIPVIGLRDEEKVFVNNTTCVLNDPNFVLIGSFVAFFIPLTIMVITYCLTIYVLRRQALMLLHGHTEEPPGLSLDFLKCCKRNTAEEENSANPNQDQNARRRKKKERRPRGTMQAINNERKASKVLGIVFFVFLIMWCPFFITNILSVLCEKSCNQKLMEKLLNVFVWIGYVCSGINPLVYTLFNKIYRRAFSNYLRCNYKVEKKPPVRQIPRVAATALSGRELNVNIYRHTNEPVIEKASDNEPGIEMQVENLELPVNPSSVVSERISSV
Method: (§1) Phosphoinositide hydrolysis assays were performed with stably (5-HT2A, 5-HT2C) or transiently (5-HT2B) expressed receptors plated in 24-well culture plates. Transfected cells were loaded with […] overnight in inositol-free DMEM without serum. The next day, phosphate accumulation assays were performed in a modified Krebs-bicarbonate buffer. Kact (nmol/L) and percent Vmax (relative to 5-HT) values were calculated (Roth, B. L., Shoham, M., Choudhary, M., Khan, N. “Identification of Conserved Aromatic Residues Essential for Agonist Binding and Second Messenger Production at 5-Hydroxytryptamine 2A Receptors” Mol. Pharmacol. 1997, 52, 259; Roth, B. L., Choudhary, M., Khan, N., Uluer, A. “High-affinity Agonist Binding is not Sufficient for Agonist Efficacy at 5-Hydroxytryptamine 2A Receptors: Evidence in Favor of a Modified Ternary Complex Model” J. Pharmacol. Exp. Ther. 1997, 280, 576).
(§2) Functional Assay (EC50) in nM. Data represent mean EC50 values for activation of phospho-inositide hydrolysis in cells expressing human 5-HT2A, 5-HT2B or 5-HT2C-INI receptors, relative to serotonin at 100%. When the standard deviation is given, N≧3.

5-HT2A = 5-HT2A (Homo sapiens, UniProt P28223); test: Phosphoinositide hydrolysis functional assay; type: cell-based; set-up: expressed in transfected cells; conditions: for Functional Assay (EC50) 5-HT2A / EC50: activation of phosphoinositide hydrolysis, stably expressed receptor; for percent Vmax relative to serotonin at 100%, 5-HT2A: value in brackets
5-HT2A, sequence (P28223 whole entry): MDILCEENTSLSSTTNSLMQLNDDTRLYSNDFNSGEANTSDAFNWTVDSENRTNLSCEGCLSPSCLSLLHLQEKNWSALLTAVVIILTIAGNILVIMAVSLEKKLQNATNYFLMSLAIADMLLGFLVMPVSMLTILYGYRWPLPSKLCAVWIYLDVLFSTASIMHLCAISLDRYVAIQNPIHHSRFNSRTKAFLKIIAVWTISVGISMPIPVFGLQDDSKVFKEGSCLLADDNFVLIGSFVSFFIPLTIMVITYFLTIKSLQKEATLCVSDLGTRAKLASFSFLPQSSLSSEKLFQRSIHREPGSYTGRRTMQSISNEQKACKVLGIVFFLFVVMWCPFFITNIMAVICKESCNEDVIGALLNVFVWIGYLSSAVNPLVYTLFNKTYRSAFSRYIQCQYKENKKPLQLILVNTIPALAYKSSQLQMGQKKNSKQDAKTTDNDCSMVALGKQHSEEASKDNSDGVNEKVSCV
Method: as §1, §2

5-HT2B = 5-HT2B (Homo sapiens, UniProt P41595); test: Phosphoinositide hydrolysis functional assay; type: cell-based; set-up: expressed in transfected cells; conditions: activation of phosphoinositide hydrolysis, transiently expressed receptor
5-HT2B, sequence (P41595 whole entry): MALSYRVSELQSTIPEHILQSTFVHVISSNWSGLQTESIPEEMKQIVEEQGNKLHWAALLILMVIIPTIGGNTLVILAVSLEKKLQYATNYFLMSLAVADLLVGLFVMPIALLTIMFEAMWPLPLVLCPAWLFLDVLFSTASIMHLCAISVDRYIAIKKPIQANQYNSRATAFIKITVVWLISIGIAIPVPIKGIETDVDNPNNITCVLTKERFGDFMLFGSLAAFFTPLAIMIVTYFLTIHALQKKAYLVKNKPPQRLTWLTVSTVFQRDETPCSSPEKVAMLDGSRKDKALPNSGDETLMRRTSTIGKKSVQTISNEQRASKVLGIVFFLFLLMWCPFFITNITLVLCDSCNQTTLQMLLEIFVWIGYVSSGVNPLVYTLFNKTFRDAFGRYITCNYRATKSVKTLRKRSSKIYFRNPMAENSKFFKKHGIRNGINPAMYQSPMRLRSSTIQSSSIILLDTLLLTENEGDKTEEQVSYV
Method: as §1, §2

[4] = dose cell empty (10 mg/kg printed on the Saline line above), i.p. at intervals of 2 or 3 days
[5] = 10 mg/kg i.p. 5 minutes before inducer Serotonin
[6] = 20 mg/kg i.p. at intervals of 2 or 3 days

CN(C)CCc1cn(S(C)(=O)=O)c2cc(F)cc(O)c12
melting point: 184 to 186 °C

CN(C)CCc1cn(S(C)(=O)=O)c2c(F)ccc(O)c12
melting point: 181 to 183 °C

CC(C)n1cc(CCN(C)C)c2c(O)ccc(F)c21
melting point: 108 to 110 °C

CCNC(C)Cc1cccc(C(F)(F)F)c1 (centres unmarked) [+/−Fenfluramine, Fenfluramine, reference compound]
% of Control (food consumption 60 min. after injection) ([1]; 3 mg/kg i.p.): 95% | % of Control (food consumption 90 min. after injection) ([1]; 3 mg/kg i.p.): 95% | Mean food consumption 60 min. after injection: g (±SEM) Compound ([1]; 3 mg/kg i.p.): 1.2 (.12) g | Mean food consumption 90 min. after injection: g (±SEM) Compound ([1]; 3 mg/kg i.p.): 1.60 (.14) g | % of Control (food consumption 60 min. after injection) ([1]; 5 mg/kg i.p.): 61% | % of Control (food consumption 90 min. after injection) ([1]; 5 mg/kg i.p.): 67% | Mean food consumption 60 min. after injection: g (±SEM) Compound ([1]; 5 mg/kg i.p.): 0.90 (.04)* g | Mean food consumption 90 min. after injection: g (±SEM) Compound ([1]; 5 mg/kg i.p.): 1.18 (.17)* g | % of Control (food consumption 60 min. after injection) ([1]; 10 mg/kg i.p.): 30% | % of Control (food consumption 90 min. after injection) ([1]; 10 mg/kg i.p.): 35% | Mean food consumption 60 min. after injection: g (±SEM) Compound ([1]; 10 mg/kg i.p.): 0.41 (.11)* g | Mean food consumption 90 min. after injection: g (±SEM) Compound ([1]; 10 mg/kg i.p.): 0.56 (.13)* g | Day 7 % Δ from starting weight [2, 4]: −9.54* % | Day 7 Difference within same group [2, 4]: -4.74 g | Day 14 % Δ from starting weight [2, 4]: −10.7* % | Day 14 Difference within same group [2, 4]: -5.32 g | Average Number of Scratches 30 min. after injection [3, 5]: 12.8* | Number of Scratches as Percentage of Control ([3]; 10 mg/kg i.p.): 6.5%

CCCCn1cc(CCN(C)C)c2c(O)ccc(F)c21 [Compound O-4205, 3-(2-Dimethylaminoethyl)-7-fluoro-1-butyl-1H-indol-4-ol]
Functional Assay (EC50) 5-HT2C (human 5-HT2C-INI): inactive | melting point: 87 to 90 °C | Functional Assay (EC50) 5-HT2A (5-HT2A): Inactive | Functional Assay (EC50) 5-HT2B (5-HT2B): Inactive

CN(C)CCc1cn(C)c2cc(F)cc(O)c12 [Compound O-4244, 3-(2-Dimethylaminoethyl)-6-fluoro-1-methyl-1H-indol-4-ol]
EC50 (human 5-HT2C-INI): 0.66 nM | Emax (human 5-HT2C-INI): 75% | melting point: 132 to 134 °C | EC50 (5-HT2A): 0.55 nM | percent Vmax relative to serotonin at 100%, 5-HT2A (5-HT2A): 61% | Functional Assay (EC50) 5-HT2B (5-HT2B): Inactive

CCn1cc(CCN(C)C)c2c(O)cc(F)cc21 [Compound O-4284, 3-(2-Dimethylaminoethyl)-6-fluoro-1-ethyl-1H-indol-4-ol]
EC50 (human 5-HT2C-INI): 0.54 nM | Emax (human 5-HT2C-INI): 73% | EC50 (5-HT2A): 2.9 nM | percent Vmax relative to serotonin at 100%, 5-HT2A (5-HT2A): 73% | Functional Assay (EC50) 5-HT2B (5-HT2B): Inactive

CCCn1cc(CCN(C)C)c2c(O)cc(F)cc21 [Compound O-4285, 3-(2-Dimethylaminoethyl)-6-fluoro-1-propyl-1H-indol-4-ol]
EC50 (human 5-HT2C-INI): 131 nM | Emax (human 5-HT2C-INI): ~75% | melting point: 104 to 106 °C | EC50 (5-HT2A): 166 nM | percent Vmax relative to serotonin at 100%, 5-HT2A (5-HT2A): 63% | Functional Assay (EC50) 5-HT2B (5-HT2B): Inactive

CCCCn1cc(CCN(C)C)c2c(O)cc(F)cc21 [Compound O-4286, 3-(2-Dimethylaminoethyl)-6-fluoro-1-butyl-1H-indol-4-ol]
Functional Assay (EC50) 5-HT2C (human 5-HT2C-INI): inactive | melting point: 92 to 95 °C | Functional Assay (EC50) 5-HT2A (5-HT2A): Inactive | Functional Assay (EC50) 5-HT2B (5-HT2B): Inactive

CN(C)CCc1cn(CC2CC2)c2cc(F)cc(O)c12 [Compound O-4287, 3-(2-Dimethylaminoethyl)-6-fluoro-1-cyclopropylmethyl-1H-indol-4-ol]
EC50 (human 5-HT2C-INI): 1160 nM | Emax (human 5-HT2C-INI): 41% | melting point: 110 to 112 °C | EC50 (5-HT2A): 3740 nM | percent Vmax relative to serotonin at 100%, 5-HT2A (5-HT2A): 63% | Functional Assay (EC50) 5-HT2B (5-HT2B): Inactive

CCCn1cc(CCN(C)C)c2c(OP(=O)(O)O)ccc(F)c21 [Compound O-4309, 3-(2-Dimethylaminoethyl)-7-fluoro-1-propyl-1H-indol-4-phosphate]
% of Control (food consumption 60 min. after injection) ([1]; 10 mg/kg i.p.): 41% | % of Control (food consumption 90 min. after injection) ([1]; 10 mg/kg i.p.): 64% | Mean food consumption 60 min. after injection: g (±SEM) Compound ([1]; 10 mg/kg i.p.): 0.28 (.06)* g | Mean food consumption 90 min. after injection: g (±SEM) Compound ([1]; 10 mg/kg i.p.): 0.68 (0.1)* g | % of Control (food consumption 60 min. after injection) ([1]; 20 mg/kg i.p.): 9% | % of Control (food consumption 90 min. after injection) ([1]; 20 mg/kg i.p.): 18% | Mean food consumption 60 min. after injection: g (±SEM) Compound ([1]; 20 mg/kg i.p.): .07 (.02)* g | Mean food consumption 90 min. after injection: g (±SEM) Compound ([1]; 20 mg/kg i.p.): 0.22 (.05)* g | Day 7 % Δ from starting weight [2, 6]: −2.3* % | Day 7 Difference within same group [2, 6]: -1.20 g | Day 14 % Δ from starting weight [2, 6]: −6.03* % | Day 14 Difference within same group [2, 6]: -3.20 g | Average Number of Scratches 30 min. after injection ([3]; 2.5 mg/kg i.p. 5 minutes before inducer Serotonin): 181.4 | Number of Scratches as Percentage of Control ([3]; 2.5 mg/kg i.p.): 97.4% | Average Number of Scratches 30 min. after injection ([3]; 5 mg/kg i.p. 5 minutes before inducer Serotonin): 89.6 | Number of Scratches as Percentage of Control ([3]; 5 mg/kg i.p.): 17.8% | Average Number of Scratches 30 min. after injection [3, 5]: 8.8 | Number of Scratches as Percentage of Control ([3]; 10 mg/kg i.p.): 1.6%

CC(C)n1cc(CCN(C)C)c2c(O)cc(F)cc21 [Compound O-4310, 3-(2-Dimethylaminoethyl)-6-fluoro-1-isopropyl-1H-indol-4-ol]
EC50 (human 5-HT2C-INI): 592 nM | Emax (human 5-HT2C-INI): ~50% | EC50 (5-HT2A): 5 nM | percent Vmax relative to serotonin at 100%, 5-HT2A (5-HT2A): 89% | Functional Assay (EC50) 5-HT2B (5-HT2B): Inactive

CCS(=O)(=O)n1cc(CCN(C)C)c2c(O)cc(F)cc21 [Compound O-4312, 3-(2-Dimethylaminoethyl)-6-fluoro-1-ethylsulfonyl-1H-indol-4-ol]
Functional Assay (EC50) 5-HT2C (human 5-HT2C-INI): inactive | Functional Assay (EC50) 5-HT2A (5-HT2A): inactive | Functional Assay (EC50) 5-HT2B (5-HT2B): Inactive

CNCCC(Oc1ccc(C(F)(F)F)cc1)c1ccccc1 (centres unmarked) [Fluoxetine, reference compound]
Average Number of Scratches 30 min. after injection [3, 5]: 15 | Number of Scratches as Percentage of Control ([3]; 10 mg/kg i.p.): 4.1%
